This note sets out measurements from the supplement of paper PMC10307832.

Assay in all cases: relative viability (nuclei count vs DMSO), 5 days (fraction); higher = more cells survive
Compound in assay [1]: Cc1ccc(F)c(NC(=O)Nc2ccc(-c3cccc4[nH]nc(N)c34)cc2)c1 [Linifanib] + CC(=O)Nc1cccc(-n2c(=O)n(C3CC3)c(=O)c3c(Nc4ccc(I)cc4F)n(C)c(=O)c(C)c32)c1 [Trametinib] (partner 0.02 µM)
Put shortly:
(§1)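 After 5 days of treatment, lung cancer cells in 1536-well plates were fixed and stained in a single step (final 0.05% Triton X-100, 1% formaldehyde, 1 ug/ml Hoechst) and their nuclei counted on 4× images. Treatment had been applied by pin tool the day after seeding as one drug alone or as a fixed anchor-drug dose with five library-drug doses (not always all listed) in √10 steps. Relative viability is the nuclei count of treated wells divided by that of vehicle wells, and values are medians of duplicate plates.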

Compound in assay [2]: Cc1ccc(F)c(NC(=O)Nc2ccc(-c3cccc4[nH]nc(N)c34)cc2)c1 [Linifanib] + CC(C)C[C@H](NC(=O)[C@H](Cc1ccccc1)NC(=O)c1cnccn1)B(O)O [Bortezomib] (partner 0.002 µM)
Put shortly:
as §1

Compound in assay [3]: Cc1ccc(F)c(NC(=O)Nc2ccc(-c3cccc4[nH]nc(N)c34)cc2)c1 [Linifanib] + COc1cc2c(Oc3ccc(NC(=O)C4(C(=O)Nc5ccc(F)cc5)CC4)cc3F)ccnc2cc1OCCCN1CCOCC1 [Foretinib] (partner 0.25 µM)
In short, it runs like this:
as §1

Compound in assay [4]: Cc1ccc(F)c(NC(=O)Nc2ccc(-c3cccc4[nH]nc(N)c34)cc2)c1 [Linifanib] + COc1cccc2cc(-c3nc([C@H]4CC[C@H](C(=O)O)CC4)n4ncnc(N)c34)[nH]c12 [OSI-027] (partner 0.5 µM)
Put shortly: as §1

Compound in assay [5]: Cc1ccc(F)c(NC(=O)Nc2ccc(-c3cccc4[nH]nc(N)c34)cc2)c1 [Linifanib] + CS(=O)(=O)CCNCc1ccc(-c2ccc3ncnc(Nc4ccc(OCc5cccc(F)c5)c(Cl)c4)c3c2)o1 [Lapatinib] (partner 2 µM)
In short, it runs like this: as §1

Compound in assay [6]: Cc1ccc(F)c(NC(=O)Nc2ccc(-c3cccc4[nH]nc(N)c34)cc2)c1 [Linifanib] + Cc1nc(NC(=O)N2CCC[C@H]2C(N)=O)sc1-c1ccnc(C(C)(C)C(F)(F)F)c1 [Alpelisib] (partner 2 µM)
Put shortly:
as §1

As for NCI-H1437, the relative viability in assay [1] (first compound 0.03162 µM) was 0.559; in assay [1] (first compound 0.1 µM) it was 0.618; in assay [1] (first compound 0.3162 µM), 0.45; in assay [2] (first compound 0.03162 µM) it was 0.644; in assay [2] (first compound 0.1 µM), 0.688; in assay [2] (first compound 0.3162 µM), 0.491. Besides, the relative viability in assay [3] (first compound 0.03162 µM) stood at 1.27; in assay [3] (first compound 0.1 µM) it was 1.25; in assay [3] (first compound 0.3162 µM), 1.19; in assay [4] (first compound 0.03162 µM), 0.881; in assay [4] (first compound 0.1 µM), 0.895; in assay [4] (first compound 0.3162 µM), 0.908. Further, the relative viability in assay [5] (first compound 0.03162 µM) is 0.957; in assay [5] (first compound 0.1 µM), 0.801; in assay [5] (first compound 0.3162 µM), 0.77; in assay [6] (first compound 0.03162 µM) it was 1.02; in assay [6] (first compound 0.1 µM), 0.999; in assay [6] (first compound 0.3162 µM), 0.868.

In the case of RERF-LC-KJ, the relative viability in assay [1] (first compound 0.03162 µM) was determined as 0.871; in assay [1] (first compound 0.1 µM), 0.87; in assay [1] (first compound 0.3162 µM) it was 0.877; in assay [2] (first compound 0.03162 µM), 1.25; in assay [2] (first compound 0.1 µM) it was 1.22; in assay [2] (first compound 0.3162 µM) it was 0.991. Moreover, the relative viability in assay [3] (first compound 0.03162 µM) came out at 0.796; in assay [3] (first compound 0.1 µM) it was 0.932; in assay [3] (first compound 0.3162 µM), 0.814; in assay [4] (first compound 0.03162 µM) it was 0.572; in assay [4] (first compound 0.1 µM), 0.654; in assay [4] (first compound 0.3162 µM) it was 0.616. Besides, the relative viability in assay [5] (first compound 0.03162 µM) was determined as 0.885; in assay [5] (first compound 0.1 µM), 0.891; in assay [5] (first compound 0.3162 µM) it was 0.868; in assay [6] (first compound 0.03162 µM), 0.888; in assay [6] (first compound 0.1 µM), 1.04; in assay [6] (first compound 0.3162 µM), 0.75.

Take NCI-H1793: the relative viability in assay [1] (first compound 0.03162 µM) amounted to 0.372; in assay [1] (first compound 0.1 µM), 0.56; in assay [1] (first compound 0.3162 µM), 0.434; in assay [3] (first compound 0.03162 µM) it was 0.843; in assay [3] (first compound 0.1 µM) it was 0.953; in assay [3] (first compound 0.3162 µM), 0.734. The relative viability in assay [4] (first compound 0.03162 µM) is 0.254; in assay [4] (first compound 0.1 µM), 0.296; in assay [4] (first compound 0.3162 µM) it was 0.267; in assay [5] (first compound 0.03162 µM) it was 0.7; in assay [5] (first compound 0.1 µM), 0.765; in assay [5] (first compound 0.3162 µM), 0.765. Also, the relative viability was 0.664 in assay [6] (first compound 0.03162 µM), 0.763 in assay [6] (first compound 0.1 µM) and 0.681 in assay [6] (first compound 0.3162 µM).

On to NCI-H1944, for which the relative viability in assay [1] (first compound 0.03162 µM) stood at 0.427; in assay [1] (first compound 0.1 µM), 0.416; in assay [1] (first compound 0.3162 µM) it was 0.381; in assay [3] (first compound 0.03162 µM), 0.928; in assay [3] (first compound 0.1 µM), 0.889; in assay [3] (first compound 0.3162 µM) it was 0.876. Moreover, the relative viability came out at 0.405 in assay [4] (first compound 0.03162 µM); 0.462 in assay [4] (first compound 0.1 µM); 0.409 in assay [4] (first compound 0.3162 µM); 0.943 in assay [5] (first compound 0.03162 µM); 0.881 in assay [5] (first compound 0.1 µM); 0.645 in assay [5] (first compound 0.3162 µM). Moreover, the figures for the relative viability in assay [6] (first compound 0.03162 µM), in assay [6] (first compound 0.1 µM) and in assay [6] (first compound 0.3162 µM) were 0.846, 0.848 and 0.695, respectively.

As for NCI-H2170, the relative viability in assay [1] (first compound 0.03162 µM) is 0.922; in assay [1] (first compound 0.1 µM), 0.855; in assay [1] (first compound 0.3162 µM) it was 0.937; in assay [3] (first compound 0.03162 µM) it was 0.792; in assay [3] (first compound 0.1 µM), 1.01; in assay [3] (first compound 0.3162 µM), 0.99. The relative viability was 0.655 in assay [4] (first compound 0.03162 µM); 0.747 in assay [4] (first compound 0.1 µM); 0.732 in assay [4] (first compound 0.3162 µM); 0.255 in assay [5] (first compound 0.03162 µM); 0.277 in assay [5] (first compound 0.1 µM); 0.279 in assay [5] (first compound 0.3162 µM). Besides, the relative viability in assay [6] (first compound 0.03162 µM) turned out to be 0.787; in assay [6] (first compound 0.1 µM), 0.875; in assay [6] (first compound 0.3162 µM), 0.776.

ChaGo-K-1: the relative viability in assay [1] (first compound 0.03162 µM) came to 0.904; in assay [1] (first compound 0.1 µM), 0.942; in assay [1] (first compound 0.3162 µM), 0.86; in assay [2] (first compound 0.03162 µM) it was 0.946; in assay [2] (first compound 0.1 µM), 1.18; in assay [2] (first compound 0.3162 µM) it was 0.926. Further, the relative viability in assay [3] (first compound 0.03162 µM) is 1.09; in assay [3] (first compound 0.1 µM), 0.935; in assay [3] (first compound 0.3162 µM) it was 0.951; in assay [4] (first compound 0.03162 µM), 0.584; in assay [4] (first compound 0.1 µM) it was 0.602; in assay [4] (first compound 0.3162 µM), 0.673.

Regarding NCI-H1650, the relative viability in assay [1] (first compound 0.03162 µM) was 0.563; in assay [1] (first compound 0.1 µM) it was 0.673; in assay [1] (first compound 0.3162 µM), 0.541; in assay [2] (first compound 0.03162 µM) it was 0.216; in assay [2] (first compound 0.1 µM), 0.212; in assay [2] (first compound 0.3162 µM) it was 0.199. Also, the relative viability in assay [3] (first compound 0.03162 µM) stood at 0.966; in assay [3] (first compound 0.1 µM), 1.33; in assay [3] (first compound 0.3162 µM) it was 1.07; in assay [4] (first compound 0.03162 µM), 0.752; in assay [4] (first compound 0.1 µM), 0.78; in assay [4] (first compound 0.3162 µM), 0.585. Further, the relative viability came to 0.797 in assay [5] (first compound 0.03162 µM), 0.9 in assay [5] (first compound 0.1 µM) and 0.721 in assay [5] (first compound 0.3162 µM).

For LK-2, the relative viability came to 0.707 in assay [1] (first compound 0.03162 µM); 0.769 in assay [1] (first compound 0.1 µM); 0.742 in assay [1] (first compound 0.3162 µM); 1.12 in assay [3] (first compound 0.03162 µM); 1.33 in assay [3] (first compound 0.1 µM); 1.08 in assay [3] (first compound 0.3162 µM). In addition, the relative viability in assay [4] (first compound 0.03162 µM) came out at 0.212; in assay [4] (first compound 0.1 µM), 0.21; in assay [4] (first compound 0.3162 µM), 0.261; in assay [5] (first compound 0.03162 µM) it was 0.931; in assay [5] (first compound 0.1 µM), 1.06; in assay [5] (first compound 0.3162 µM) it was 0.915. The relative viability worked out at 0.895 in assay [6] (first compound 0.03162 µM), 1.06 in assay [6] (first compound 0.1 µM) and 1.01 in assay [6] (first compound 0.3162 µM).

Consider HCC-44, for which the relative viability in assay [1] (first compound 0.03162 µM) worked out at 1.05; in assay [1] (first compound 0.1 µM), 1.07; in assay [1] (first compound 0.3162 µM) it was 1.03; in assay [2] (first compound 0.03162 µM), 0.925; in assay [2] (first compound 0.1 µM), 0.915; in assay [2] (first compound 0.3162 µM), 0.818. Moreover, the relative viability in assay [4] (first compound 0.03162 µM) stood at 0.62; in assay [4] (first compound 0.1 µM), 0.596; in assay [4] (first compound 0.3162 µM), 0.478; in assay [5] (first compound 0.03162 µM), 1.04; in assay [5] (first compound 0.1 µM) it was 1; in assay [5] (first compound 0.3162 µM) it was 0.989. The relative viability in assay [6] (first compound 0.03162 µM) worked out at 0.82; in assay [6] (first compound 0.1 µM), 0.824; in assay [6] (first compound 0.3162 µM), 0.793.

As for SW 900, the relative viability in assay [1] (first compound 0.03162 µM) amounted to 0.76; in assay [1] (first compound 0.1 µM), 0.83; in assay [1] (first compound 0.3162 µM) it was 0.912; in assay [3] (first compound 0.03162 µM), 0.925; in assay [3] (first compound 0.1 µM), 0.987; in assay [3] (first compound 0.3162 µM) it was 0.666. Further, the values for the relative viability in assay [4] (first compound 0.03162 µM), in assay [4] (first compound 0.1 µM) and in assay [4] (first compound 0.3162 µM) were 0.507, 0.808 and 0.47, respectively.
